Here are results for 1 compound from US7863446B2, “Heterocycles” (Orchid Research Laboratories Limited, priority 2006, dated 2011).

As usually defined, the inhibition is the change of the read-out against control, counted positive when it falls. The melting point is the temperature, or range, at which the solid turns liquid. As a reminder, the GI50 is the concentration giving 50% growth inhibition. Read a low GI50 as greater sensitivity of the cells.

For one data set, the system named is TNF-α. Briefly: In vitro measurement of TNF-α in human PBMC (LPS stimulated). In kind it is cell-based. In outline:
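Healthy-volunteer PBMC (0.5 million/well) in RPMI were pre-incubated with compound 15 min at 37 °C. They were then stimulated with E. coli B4 LPS 1 μg/ml for 18 h at 37 °C, 5% CO2. TNF-α in culture medium was measured by ELISA.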

In the next data set the test system is IL-6. Briefly: In vitro measurement of IL-6 in human PBMC (LPS stimulated). Format: cell-based. The procedure, abridged: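 Human PBMC (0.5 million/well) pre-incubated with compound 15 min at 37 °C, then stimulated with E. coli LPS (1 μg/ml) for 18 h at 37 °C, 5% CO2. IL-6 in culture medium quantified by ELISA.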
For the next data set, the system named is Male wistar rats. Briefly: Carrageenan induced paw edema test in rat. In kind it is in vivo. To be noted: oral, 3 hours after carrageenan. How it is done:
Carrageenan Induced Paw Edema Test in Rat
The carrageenan paw edema test was performed as described by Winter et al (Proc. Soc. Exp. Biol. Med, 111, 544, 1962). Male wistar rats were selected with body weights equivalent within each group. The rats were fasted for 18 hours with free access to water. The rats were dosed orally with the test compound suspended in the vehicle containing 0.25% carboxymethylcellulose and 0.5% Tween 80. The control rats were administered with vehicle alone. After an hour, the rats were injected with 0.1 ml of 1% Carrageenan solution in 0.9% saline into the sub-plantar surface of the right hind paw. Paw volume was measured using digital plethysmograph before and after 3 hours of carrageenan injection. The average of foot swelling in drug treated animals was compared with that of the control animals. Anti-inflammatory activity was expressed as the percentage inhibition of edema compared with control group [Arzneim-Forsch/Drug Res., 43 (I), 1, 44-50, 1993; Representative results of edema inhibition are shown in the Table VI.
(In general: Carrageenan injected into the paw causes an acute inflammation.)

The next data set has as its system DU-145. The data set is described as follows: Anti-cancer screen (MTT), DU-145. Format: cell-based. Particulars: Homo sapiens, DU-145, 48 hours.
The next data set relates to HCT-116. The data set is described as follows: Anti-cancer screen (MTT), HCT-116. In kind it is cell-based. To be noted: Homo sapiens, HCT-116, 48 hours. As to the method:
Experimental drugs are screened for anti-cancer activity in three cell lines for their GI50, TG1 and LC50 values (using 5 concentrations for each compound). The cell lines are maintained in DMEM containing 10% fetal bovine serum. 96 well microtiter plates are inoculated with cells in […] for 24 hours at 37° C., 5% CO2, 95% air and 100% relative humidity. 5000 HCT116 cells/well, 5000 NCIH460 cells/well, 10000 U251 cells/well and 5000 MDAMB231 cells/well are plated. A separate plate with these cell lines is also inoculated to determine cell viability before the addition of the compounds (T0).
Addition of Experimental Drugs
Following 24-hour incubation, experimental drugs are added to the 96 well plates. Each plate contains one of the above cell lines and the following in triplicate: 5 different concentrations (0.01, 0.1, 1, 10 and 100 μM) of 4 different compounds, appropriate dilutions of a cytotoxic standard and control (untreated) wells. Compounds are dissolved in dimethylsulfoxide (DMSO) to make 20 mM stock solutions, on the day of drug addition and frozen at −20° C. Serial dilutions of these 20 mM stock solutions are made in complete growth medium such that 100 μL of these drug solutions in medium, of final concentrations equaling 0.01, 0.1, 1, 10 and 100 μM can be added to the cells in triplicate. Standard drugs whose anti-cancer activity has been well documented and which are regularly used are doxorubicin and SAHA.
Cells are incubated with compounds for 48 hours followed by the addition of 10 μL 3-(4,5-Dimethyl-2-thiazolyl)-2,5-diphenyl-2H-tetrazolium (MTT) solution per well and a subsequent incubation at 37° C., 5% CO2, 95% air and 100% relative humidity, protected from light. After 4 hours, well contents are aspirated carefully followed by addition of 150 μL DMSO per well. Plates are agitated to ensure solution of the formazan crystals in DMSO and absorbance read at 570 nm.
Calculation of GI50, TGI and LC50
Percent growth is calculated for each compound's concentration relative to the control and zero measurement wells (T0; viability right before compound addition).
If a test well's O.D. value is greater than the T0 measurement for that cell line % Growth=(test−zero)/(control−zero)×100
If a test well's O.D. value is lower than the T0 measurement for that cell line, then % Growth=(test−zero)/zero×100 Plotting % growth versus experimental drug concentration, GI50 is the concentration required to decrease % growth by 50%; TGI is the concentration required to decrease % growth by 100% and LC50 is the concentration required to decrease % growth by 150%.

In a further data set the test system is Animals (male wistar). The data set is described as follows: Ulcerogenic potential. In kind it is in vivo. Particulars: oral, 4 hours after administration. As to the method: In order to evaluate the compound's role on the ulcer formation, the animals were sacrificed and the stomach was taken out and flushed with 1% formalin. Animals (male wistar. 200 g) were fasted for 18 hours with free access to water and the test compounds were suspended in 0.5% Tween 80 and 0.25% CMC (carboxymethylcellulose) solution to make a uniform suspension. After 4 hours of oral administration of test compounds, all the animals were sacrificed by cervical dislocation. The stomach was dissected carefully and filled up with a sterile saline solution and embedded in 6% formalin solution. […] The test compound treated groups were compared with the vehicle treated groups. […]

In turn, `CNS(=O)(=O)c1ccc(-c2c(Cl)nc(C(F)(F)F)nc2-c2ccc(S(C)(=O)=O)cc2)cc1` [Example 4, 4-{4-Chloro-6-[4-(methylsulfonyl)phenyl]-2-(trifluoromethyl)pyrimidin-5-yl}-N-methylbenzenesulfonamide] registered a melting point of 226 to 230 °C. In addition, in the data set on TNF-α (1 μM, NA = No activity, read-out: TNF-α Inhibition (%) at Conc. (1 μM)), the inhibition at 1 µM was 30%. For the same compound, in the data set on TNF-α (10 μM, read-out: TNF-α Inhibition (%) at Conc. (10 μM)), the inhibition at 10 µM was 107%. In the data set with IL-6 (1 μM, read-out: IL-6 Inhibition (%) Conc. (1 μM)), the inhibition at 1 µM amounted to 27.2%. In addition, the inhibition at 10 µM in the data set on IL-6 (10 μM, read-out: IL-6 Inhibition (%) Conc. (10 μM)) is 100%. Also, the “Inhibition of edema (%) at 5 mg/kg” value in the data set with Male wistar rats came out at 17.12%. The compound also had a GI50 in the data set on DU-145 of 1.93 µM. The compound further had a GI50 with HCT-116 of 2 µM. Also, the “Ulcer incidence at 5 mg/kg” value in the data set on Animals (male wistar) is “Nil”.
